Structures are written as SMILES. “And” between values parts separate entries of the source, which are not always exact repeats. Equal entries are not always repeated. Inconclusive results and toxic doses are left out.

Consider 16 compounds from PubChem BioAssay AID222 (DTP/NCI, 2004).

The subject of the assay is C57BL/6 mice, intracerebral ependymoblastoma, median survival T/C. Kind of assay: NCI In Vivo Anticancer Drug Screen. Data for tumor model Ependymoblastoma (intracerebral) in C57BL/6 mice. Conditions: endpoint: median survival time, higher = longer survival. On the procedure:
The antitumor activity of compounds was measured in mice bearing transplantable tumors. Survival or tumor size were measured and the results are expressed as the measurement made in the treated group (T) divided by the measurement made in the vehicle treated control group (C). The tumor model used in this assay is Ependymoblastoma (intracerebral) in C57BL/6 mice

The mark [1] stands for this setting: dose: 0.05 mg/kg/injection, schedule: Q01DX005 (ip), vehicle: saline.
Setting [2] is: dose: 0.1 mg/kg/injection, schedule: Q01DX005 (ip), vehicle: saline.
The mark [3] stands for this setting: dose: 0.2 mg/kg/injection, schedule: Q01DX005 (ip), vehicle: saline.
[4] abbreviates: dose: 0.4 mg/kg/injection, schedule: Q01DX005 (ip), vehicle: saline.
The mark [5] stands for this setting: dose: 0.8 mg/kg/injection, schedule: Q01DX005 (ip), vehicle: saline.
Setting [6] is: dose: 90.0 mg/kg/injection, schedule: Q01DX005 (ip), vehicle: saline with Tween-80.
[7] abbreviates: dose: 180.0 mg/kg/injection, schedule: Q01DX005 (ip), vehicle: saline with Tween-80.
[8] abbreviates: dose: 720.0 mg/kg/injection, schedule: Q01DX005 (ip), vehicle: saline with Tween-80.
[9] abbreviates: dose: 32.0 mg/kg/injection, schedule: Q01DX005 (ip), vehicle: saline.
Setting [10] is: dose: 4.0 mg/kg/injection, schedule: Q01DX005 (ip), vehicle: saline.
[11] abbreviates: dose: 8.0 mg/kg/injection, schedule: Q01DX005 (ip), vehicle: saline.
The mark [12] stands for this setting: dose: 16.0 mg/kg/injection, schedule: Q01DX005 (ip), vehicle: saline.

With `CCC1(O)CC2CN(CCc3c([nH]c4ccccc34)C(C(=O)OC)(c3cc4c(cc3OC)N(C)C3C(O)(C(=O)NCCO)C(O)C5(CC)C=CCN6CCC43C65)C2)C1` (centres undefined), the T/C runs as follows: under setting [1], 108 % of control; under setting [2], 113 % of control; under setting [3], 117 % of control; under setting [4], 108 % of control; under setting [5], 108 % of control.

As to `O=c1ccc2ccccc2o1`, the T/C runs as follows: under setting [6], 101 % of control; under setting [7], 86 % of control; under setting [8], 97 % of control.

In the case of `O=C1N(Cl)C(=O)C(c2ccc(Cl)cc2)(c2ccc(Cl)cc2)N1Cl`, the T/C is 105 % of control (dose: 1.56 mg/kg/injection, schedule: Q01DX005 (ip), vehicle: Klucel (hydroxypropylcellulose) (HPC)); 110 % of control (dose: 3.12 mg/kg/injection, schedule: Q01DX005 (ip), vehicle: Klucel (hydroxypropylcellulose) (HPC)); 99 % of control (dose: 6.25 mg/kg/injection, schedule: Q01DX005 (ip), vehicle: Klucel (hydroxypropylcellulose) (HPC)); 112 % of control (dose: 12.5 mg/kg/injection, schedule: Q01DX005 (ip), vehicle: Klucel (hydroxypropylcellulose) (HPC)); 110 % of control (dose: 25.0 mg/kg/injection, schedule: Q01DX005 (ip), vehicle: Klucel (hydroxypropylcellulose) (HPC)).

For `O=[N+]([O-])O.[Ga]`, under setting [9], the T/C was 110 % of control.

As for `N[C@H](C(=O)O)[C@@H]1CC(Cl)=NO1`, the T/C runs as follows: (dose: 1.0 mg/kg/injection, schedule: Q01DX005 (ip), vehicle: saline with Tween-80) 93 % of control; (dose: 2.0 mg/kg/injection, schedule: Q01DX005 (ip), vehicle: saline with Tween-80) 94 % of control; (dose: 4.0 mg/kg/injection, schedule: Q01DX005 (ip), vehicle: saline with Tween-80) 113 % of control; (dose: 8.0 mg/kg/injection, schedule: Q01DX005 (ip), vehicle: saline with Tween-80) 108 % of control; (dose: 8.0 mg/kg/injection, schedule: Q12HX002 (ip), vehicle: saline) 118 % of control; (dose: 16.0 mg/kg/injection, schedule: Q01DX001 (ip), vehicle: saline) 100 % of control and 114 % of control. Besides, the T/C (dose: 16.0 mg/kg/injection, schedule: Q12HX002 (ip), vehicle: saline) was 97 % of control; the T/C (dose: 32.0 mg/kg/injection, schedule: Q01DX001 (ip), vehicle: saline) was 101 % of control; the T/C (dose: 32.0 mg/kg/injection, schedule: Q12HX002 (ip), vehicle: saline) is 113 % of control; the T/C (dose: 64.0 mg/kg/injection, schedule: Q01DX001 (ip), vehicle: saline) was 103 % of control and 113 % of control; the T/C (dose: 64.0 mg/kg/injection, schedule: Q01DX001 (oral), vehicle: saline) was 93 % of control and 105 % of control; the T/C (dose: 64.0 mg/kg/injection, schedule: Q12HX002 (ip), vehicle: saline) was 116 % of control. Also, the T/C reads like this: (dose: 128.0 mg/kg/injection, schedule: Q01DX001 (ip), vehicle: saline) 106 % of control and 108 % of control; (dose: 128.0 mg/kg/injection, schedule: Q01DX001 (oral), vehicle: saline) 98 % of control and 106 % of control; (dose: 128.0 mg/kg/injection, schedule: Q12HX002 (ip), vehicle: saline) 108 % of control; (dose: 256.0 mg/kg/injection, schedule: Q01DX001 (ip), vehicle: saline) 106 % of control and 108 % of control; (dose: 256.0 mg/kg/injection, schedule: Q01DX001 (oral), vehicle: saline) 102 % of control and 117 % of control; (dose: 512.0 mg/kg/injection, schedule: Q01DX001 (oral), vehicle: saline) 106 % of control and 121 % of control. Where the note is “dose: 1024.0 mg/kg/injection, schedule: Q01DX001 (oral), vehicle: saline”, the T/C was 110 % of control and 115 % of control.

In the case of `C[CH2][Ge]1([CH2]C)[CH2]CC2(CCN(CCCN(C)C)C2)C[CH2]1`, the T/C was 104 % of control under setting [10]; 98 % of control and 101 % of control and 108 % of control under setting [11].

In the case of `COS(C)(=O)=O`, under setting [12], the T/C is 113 % of control.

Consider `CCC1CC2CC(c3cc4c(cc3OC)N(C)C3C(O)(C(=O)OC)C(OC(C)=O)C5(CC)C=CCN6CCC43C65)c3[nH]c4ccccc4c3CCN(C1)C2` (centres undefined), for which the T/C is, setting by setting: under setting [1], 108 % of control; under setting [2], 112 % of control; under setting [3], 97 % of control; under setting [4], 119 % of control; under setting [5], 107 % of control; (dose: 3.2 mg/kg/injection, schedule: Q01DX005 (ip), vehicle: saline) 96 % of control. The T/C was 105 % of control (dose: 6.4 mg/kg/injection, schedule: Q01DX005 (ip), vehicle: saline) and 102 % of control (dose: 12.8 mg/kg/injection, schedule: Q01DX005 (ip), vehicle: saline).

For the compound `NNC(=O)c1ccncc1`, the T/C is, setting by setting: (dose: 28.75 mg/kg/injection, schedule: Q01DX005 (ip), vehicle: saline) 94 % of control; (dose: 57.5 mg/kg/injection, schedule: Q01DX005 (ip), vehicle: saline) 102 % of control; (dose: 115.0 mg/kg/injection, schedule: Q01DX005 (ip), vehicle: saline) 105 % of control.

Turning to `CCCN(C)C(=O)N(CCCl)N=O`, the T/C (dose: 39.0 mg/kg/injection, schedule: Q01DX001 (ip), vehicle: other) is 182 % of control; the T/C (dose: 62.5 mg/kg/injection, schedule: Q01DX001 (ip), vehicle: other) was 309 % of control; the T/C (dose: 78.0 mg/kg/injection, schedule: Q01DX001 (ip), vehicle: other) was 227 % of control; the T/C (dose: 125.0 mg/kg/injection, schedule: Q01DX001 (ip), vehicle: other) was 309 % of control; the T/C (dose: 156.0 mg/kg/injection, schedule: Q01DX001 (ip), vehicle: other) was 308 % of control.

With `C1CN1c1nc(N2CC2)nc(N2CC2)n1`, the T/C is, setting by setting: (dose: 0.12 mg/kg/injection, schedule: Q01DX005 (ip), vehicle: saline) 111 % of control; (dose: 0.25 mg/kg/injection, schedule: Q01DX005 (ip), vehicle: saline) 124 % of control.

Regarding `C1OC1CN1CCN(CC2CO2)CC1` (centres undefined), the T/C is, setting by setting: (dose: 3.12 mg/kg/injection, schedule: Q01DX005 (ip), vehicle: saline) 101 % of control; (dose: 6.25 mg/kg/injection, schedule: Q01DX005 (ip), vehicle: saline) 97 % of control; (dose: 25.0 mg/kg/injection, schedule: Q01DX005 (ip), vehicle: saline) 98 % of control.

Take `Nc1nc(=S)c2ncn(C3OC(CO)CC3O)c2[nH]1` (centres undefined): the T/C is, setting by setting: (dose: 5.0 mg/kg/injection, schedule: Q01DX005 (ip), vehicle: saline) 99 % of control; (dose: 10.0 mg/kg/injection, schedule: Q01DX005 (ip), vehicle: saline) 99 % of control.

Turning to `CCN(CC)CCNc1ccc(CO)c2sc3ccccc3c(=O)c12`, the T/C reads like this: (dose: 2.0 mg/kg/injection, schedule: Q01DX005 (ip), vehicle: saline) 94 % of control; under setting [10], 104 % of control; under setting [11], 104 % of control; under setting [12], 101 % of control; under setting [9], 111 % of control; (dose: 64.0 mg/kg/injection, schedule: Q01DX005 (ip), vehicle: saline) 119 % of control.

In the case of `C(COCCOCC1CO1)OCCOCC1CO1` (centres undefined), the T/C was 93 % of control (dose: 50.0 mg/kg/injection, schedule: Q01DX005 (ip), vehicle: saline with Tween-80); 96 % of control (dose: 100.0 mg/kg/injection, schedule: Q01DX005 (ip), vehicle: saline with Tween-80); 96 % of control (dose: 200.0 mg/kg/injection, schedule: Q01DX005 (ip), vehicle: saline with Tween-80); 113 % of control (dose: 400.0 mg/kg/injection, schedule: Q01DX005 (ip), vehicle: saline with Tween-80).

As to `Nc1ccc(S(N)(=O)=O)cc1`, the T/C reads like this: (dose: 45.0 mg/kg/injection, schedule: Q01DX005 (ip), vehicle: saline with Tween-80) 97 % of control; under setting [6], 88 % of control; under setting [7], 96 % of control; (dose: 360.0 mg/kg/injection, schedule: Q01DX005 (ip), vehicle: saline with Tween-80) 100 % of control; under setting [8], 90 % of control.
